Test results published in ChEMBL document CHEMBL1137558, “Synthesis and biological evaluation of new 2-arylcarbonyl-3-trifluoromethylquinoxaline 1,4-di-N-oxide derivatives and their reduced analogues” (2007).

Assays:
Assay type in all cases: functional
[1] = Anticancer activity against prostate cancer cells; conditions: Homo sapiens, Cancer cell lines
[2] = Anticancer activity against human NCI60 cells; conditions: for CC50: read-out: LC50 (the source's name)
[3] = Anticancer activity against nonsmall lung cancer cells; conditions: Homo sapiens, Cancer cell lines
[4] = Anticancer activity against leukemia cells; conditions: Homo sapiens, Leukemia cell
[5] = Anticancer activity against colon cancer cells; conditions: Homo sapiens, Cancer cell lines
[6] = Anticancer activity against melanoma cells; conditions: Homo sapiens, Melanoma cell
[7] = Anticancer activity against ovarian cancer cells; conditions: Homo sapiens, Cancer cell lines
[8] = Anticancer activity against CNS cancer cells; conditions: Homo sapiens, Cancer cell lines
[9] = Anticancer activity against renal cancer cells; conditions: Homo sapiens, Cancer cell lines
[10] = Anticancer activity against breast cancer cells; conditions: Homo sapiens, Cancer cell lines

SMILES	GI50 [1] [nM]	GI50 [2] [nM]	TGI [2] [nM]	CC50 [2] [nM]	GI50 [3] [nM]	GI50 [4] [nM]	GI50 [5] [nM]	GI50 [6] [nM]	GI50 [7] [nM]	GI50 [8] [nM]	GI50 [9] [nM]	GI50 [10] [nM]
O=C(c1ccc2ccccc2c1)c1c(C(F)(F)F)[n+]([O-])c2ccc(Cl)cc2[n+]1[O-]	1480	1230	2630	5500	1510	650	1290	1230	1200	1470	1380	1150
O=C(c1ccc2ccccc2c1)c1c(C(F)(F)F)[n+]([O-])c2cc(C(F)(F)F)ccc2[n+]1[O-]	1510	1580	3470	9330	1780	1200	1730	1480	1690	1720	1550	1670
O=C(c1ccco1)c1c(C(F)(F)F)[n+]([O-])c2cc(F)c(F)cc2[n+]1[O-]	420	380	1480	7760	730	430	190	560	390	370	360	200
O=C(c1ccco1)c1nc2cc(C(F)(F)F)ccc2[n+]([O-])c1C(F)(F)F	51900	45700	97700	> 100000	48100	51100	41400	42900	42500	45500	60600	32000
O=C(c1ccc2ccccc2c1)c1c(C(F)(F)F)[n+]([O-])c2ccc(C(F)(F)F)cc2[n+]1[O-]	570	720	1910	5500	1420	260	660	970	470	950	580	990
O=C(c1ccc2ccccc2c1)c1c(C(F)(F)F)[n+]([O-])c2cc(Cl)c(Cl)cc2[n+]1[O-]	1550	1580	3160	6170	1700	1580	1550	1570	1510	1630	1640	1620
O=C(c1ccco1)c1c(C(F)(F)F)[n+]([O-])c2cc(Cl)c(Cl)cc2[n+]1[O-]	330	630	3090	11000	280	270	500	1570	1650	790	310	1380
Cc1ccc2c(c1)[n+]([O-])c(C(=O)c1ccco1)c(C(F)(F)F)[n+]2[O-]	240	660	3470	17800	470	260	1170	880	850	740	580	660
O=C(c1ccco1)c1nc2ccc(C(F)(F)F)cc2[n+]([O-])c1C(F)(F)F	35100	47900	95500	> 100000	41900	48400	75100	46100	43000	35500	49700	59100
O=C(c1ccco1)c1nc2cc(C(F)(F)F)ccc2nc1C(F)(F)F	100000	87100	97700	> 100000	81500	54000	100000	100000	90800	75900	100000	84000
O=C(c1ccco1)c1c(C(F)(F)F)[n+]([O-])c2ccccc2[n+]1[O-]	200	410	5130	26900	350	70	510	670	1450	400	330	760
COc1ccc2c(c1)[n+]([O-])c(C(=O)c1cccs1)c(C(F)(F)F)[n+]2[O-]	2480	5010	29500	49000	3930	4430	7080	5890	4990	6240	5110	4920
O=C(c1cccs1)c1c(C(F)(F)F)[n+]([O-])c2ccc(Cl)cc2[n+]1[O-]	–	70	500	2190	70	70	40	120	160	90	30	80
